The source of these data is ChEMBL document CHEMBL1955741, “Identification of fused bicyclic heterocycles as potent and selective 5-HT(2A) receptor antagonists for the treatment of insomnia” (Bioorg Med Chem Lett, 2012).

Calls of active or inactive are those of the source. No cut-off for these calls is given here.

The target of data set [1] is T1, 5-hydroxytryptamine receptor 2C (Homo sapiens, UniProt P28335).
T1 sequence (P28335 whole entry): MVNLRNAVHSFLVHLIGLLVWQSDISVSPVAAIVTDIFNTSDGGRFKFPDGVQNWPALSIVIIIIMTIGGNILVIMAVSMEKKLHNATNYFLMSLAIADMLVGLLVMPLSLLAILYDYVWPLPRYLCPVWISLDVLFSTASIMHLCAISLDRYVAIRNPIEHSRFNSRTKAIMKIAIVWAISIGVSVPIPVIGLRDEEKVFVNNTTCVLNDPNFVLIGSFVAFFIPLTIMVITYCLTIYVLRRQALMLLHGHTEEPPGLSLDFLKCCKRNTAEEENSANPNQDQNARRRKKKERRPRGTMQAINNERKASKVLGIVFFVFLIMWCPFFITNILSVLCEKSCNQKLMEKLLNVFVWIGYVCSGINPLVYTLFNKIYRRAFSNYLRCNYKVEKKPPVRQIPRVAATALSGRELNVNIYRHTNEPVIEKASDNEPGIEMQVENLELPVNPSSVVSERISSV

Data set [2] deals with 5-hydroxytryptamine receptor 2A (Homo sapiens, UniProt P28223).
5-hydroxytryptamine receptor 2A, sequence (P28223 whole entry): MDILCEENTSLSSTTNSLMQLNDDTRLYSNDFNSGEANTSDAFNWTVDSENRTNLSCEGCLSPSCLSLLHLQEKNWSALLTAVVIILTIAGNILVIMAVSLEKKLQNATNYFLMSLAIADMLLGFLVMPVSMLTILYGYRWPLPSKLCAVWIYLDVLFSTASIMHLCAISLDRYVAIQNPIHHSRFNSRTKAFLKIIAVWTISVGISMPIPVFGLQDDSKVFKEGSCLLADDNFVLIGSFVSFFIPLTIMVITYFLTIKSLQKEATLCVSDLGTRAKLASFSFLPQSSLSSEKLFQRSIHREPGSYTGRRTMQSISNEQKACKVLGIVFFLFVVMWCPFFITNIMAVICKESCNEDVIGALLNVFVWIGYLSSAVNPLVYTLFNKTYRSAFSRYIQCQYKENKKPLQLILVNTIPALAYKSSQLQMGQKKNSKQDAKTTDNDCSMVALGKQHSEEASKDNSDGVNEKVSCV
Description: Displacement of [125I]-DOI from recombinant human 5HT2A receptor
Data set [3] relates to Rattus norvegicus. In words: Inhibition of DOI-induced hypolocomotion in rat at 1 mg/kg coadministered with DOI 10 mins prior testing. The format is functional, organism-based. Details: dose 1 mg/kg.
The nature of data set [4]: Plasma concentration in rat at 3 mg/kg after 0.75 hrs. Type of data set: ADME, organism-based. Further details: dose 3 mg/kg.
The nature of data set [5]: Half life in po dosed rat. The format is ADME, organism-based. The following applies: in vivo.
Data set [6] concerns Rattus norvegicus. In words: Total clearance in iv dosed rat. Type of data set: ADME, organism-based. The following applies: in vivo.
Data set [7] concerns Rattus norvegicus. In words: Oral bioavailability in rat. Type of data set: ADME, organism-based. The following applies: in vivo.
For data set [8], the system named is Rattus norvegicus. The experiment in a line: Volume of distribution at steady state in […] rat. Type of data set: ADME, organism-based. The following applies: in vivo.
In data set [9] the test system is Rattus norvegicus. In words: Inhibition of DOI-induced hypolocomotion in rat at 3 mg/kg coadministered with DOI 10 mins prior testing. Type of data set: functional, organism-based. Further details: dose 3 mg/kg.

Broadly, the Ki is the dissociation constant of the complex between target and ligand, obtained from inhibition or displacement. Regarding `N#Cc1cn2cccc(C(=O)N3CCN(CCc4ccc(F)cc4F)CC3)c2n1`, the Ki was found to be 6900 nM in [1] and 2.8 nM in data set [2].
With `O=C(c1cccn2cc(Cl)nc12)N1CCN(CCc2ccc(F)cc2F)CC1`, the Ki in [1] was 391 nM; in data set [2], 1.5 nM.
On to `O=C(c1cc2ncccn2n1)N1CCN(CCc2ccc(F)cc2F)CC1`, for which the results for the Ki in [1] and in data set [2] were 1360 nM and 5.6 nM, respectively.
Take `O=C(c1nc2ccccn2c1Br)N1CCN(CCc2ccc(F)cc2F)CC1`: the Ki is 581 nM in data set [1] and 1.9 nM in data set [2].
As to `O=C(c1cnn2ccccc12)N1CCN(CCc2ccc(F)cc2F)CC1`, the Ki in data set [1] is 246 nM; in data set [2] it was 1.8 nM.
Take `Cn1cc(Br)c(C(=O)N2CCN(CC(=O)c3ccc(F)cc3)CC2)n1`: the outcome in the data set on Rattus norvegicus [3] was Active.
In the case of `Nc1cccn2cc(C(=O)N3CCN(CCc4ccc(F)cc4F)CC3)nc12`, the results for the Ki in data set [1] and in data set [2] were 190 nM and 2.7 nM, respectively.
`O=C(c1cnn2c1CCCC2)N1CCN(CCc2ccc(F)cc2F)CC1`: the Ki in data set [1] was determined as 2880 nM; in data set [2] it was 18 nM.
On to `Cc1nc2ccccn2c1C(=O)N1CCN(CCc2ccc(F)cc2F)CC1`, for which the figures for the Ki in data set [1] and in data set [2] were 997 nM and 3.5 nM, respectively.
On to `O=C(c1cc2n(n1)CCCC2)N1CCN(CCc2ccc(F)cc2F)CC1`, for which the values for the Ki in data set [1] and in data set [2] were 717 nM and 2.6 nM, respectively.
Usually half-life stands for how long it takes for the measured level to halve. Low values mean fast loss, high ones slow loss. What is called clearance is the volume of plasma or blood freed of the substance per unit of time. The bioavailability is the share of a dose that reaches the circulation, judged against a reference dose that is usually intravenous. The compound `Cn1cc(Br)c(C(=O)N2CCN(CCc3ccc(F)cc3)CC2)n1` displayed a concentration at 0.75 h in [4] of 8.3 ng/mL. The same compound gave a half-life in [5] of 1.4 h. The compound further registered a clearance with Rattus norvegicus [6] of 155 mL/min/kg. Moreover, the bioavailability in the data set with Rattus norvegicus [7] came to 9%. The compound also yielded a Vdss in the data set with Rattus norvegicus [8] of 8.1 L/kg. The result in the data set with Rattus norvegicus [9] was Active.
`Cc1cc(C)n2ccnc2c1C(=O)N1CCN(CCc2ccc(F)cc2F)CC1`: the inhibition constant (Ki) in data set [1] was determined as 153 nM; in data set [2], 3.6 nM.
